Results taken from PubChem BioAssay AID2631 (Broad Institute, 2010).
Inconclusive results are not listed. Activity calls are given as the source filed them.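 How the source made its calls: active means EC50 no more than tenfold above the top concentration tested; inconclusive means flat fit with effect between 30% and 70%, or unusable fit; inactive means EC50 beyond tenfold above the top dose.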

System: BJeLR fibroblast viability, alamar blue fluorescence, 48 h
Test: cytotoxicity toward Ras-transformed BJeLR fibroblasts, dose response, cell-based, alamar blue fluorescence, cherrypicked samples (AID 2631)

Row | Structure (SMILES) | EC50
1 | CCc1ccc(/C=C2\SC(=S)N(CCC(=O)NCCCN3CCOCC3)C2=O)cc1 | > 6.67 µM (inactive)
2 | CCc1ccc(/C=C2/SC(=S)N(CCC(=O)NCCCN3CCOCC3)C2=O)cc1 | > 6.67 µM (inactive)
